Results published in article PMC6100582 (Molecules : A Journal of Synthetic Chemistry and Natural …, 2018).
Converted amounts (≈) assume the structure as drawn. Read-outs that look alike come from different tables or passages of the source.

Experiments:
[1] = test system: Staphylococcus aureus ATCC 6538; assay: Antimicrobial susceptibility assay in vitro (MIC determination); type: cell-based; settings: ATCC6538
[2] = test system: Candida albicans ATCC 90028; assay: In vitro antifungal susceptibility testing (MIC determination); type: cell-based; settings: ATCC90028
[3] = test system: Reovirus-1; assay: Antiviral activity in Vero cell cultures; type: cell-based; settings: Vero cells
[4] = test system: HL-60 (acute myeloid leukemia); assay: Antiproliferative screening (cytostatic activity); type: cell-based; settings: Homo sapiens, HL-60; 72 h, IncuCyte imaging; read-out: IC50 HL-60
Experimental: (§1) Cytostatic activity was evaluated in vitro on nine different types of human tumor cell lines: Capan-1, Hap1, HCT-116, and NCI-H460, as well as hematological tumors such as DND-41, HL-60, K-562, MM.1S and Z-138 as described previously. All human tumor cell lines were acquired from the American Type Culture Collection (ATCC, Manassas, VA, USA), except for the DND-41 cell line which was purchased from the Deutsche Sammlung von Mikroorganismen und Zellkulturen (DSMZ Leibniz-Institut, Braunschweig, Germany) and the Hap1 cell line which was purchased from Horizon Discovery (Waterbeach, UK). Capan-1, Hap1, HL-60, K-562, Z-138, MM.1S and DND-41 were cultured in Iscove′s Modified Dulbecco′s Medium (IMDM, Gibco Life Technologies, Gaithersburg, MD, USA), HCT-116 were grown in McCoy′s 5A Medium (Gibco Life Technologies) and NCI-H460 were cultured in RPMI (Gibco Life Technologies). All media were supplemented with 10% FBS (HyClone, GE Healthcare Life Sciences, USA). Adherent cell lines HCT-116, Hap1, NCI-H460, and Capan-1 cells were seeded at a density between 400 and 1250 cells per well, in 384-well, black-walled, clear-bottomed tissue culture plates (Greiner Bio-One, Kremsmünster, Germany). After overnight incubation, cells were treated with test compounds at four different concentrations ranging from 100 to 0.8 µM. Suspension cell lines HL-60, K-562, Z-138, MM.1S, and DND-41 were seeded at densities ranging from 3000 to 10,000 cells per well in 384-well, black-walled, clear-bottomed tissue culture plates containing test compounds at the same four concentrations. The plates were incubated and monitored at 37 °C for 72 h in an IncuCyte (Essen BioScience Inc., Ann Arbor, MI, USA) for real-time imaging. Images were taken every 3 h, with one field image per well under 10× magnification. All compounds were tested with duplicate data points and averaged. […]

[5] = test system: Hap1 (chronic myeloid leukemia); assay: Antiproliferative screening (cytostatic activity); type: cell-based; settings: Homo sapiens, HAP1; 72 h, IncuCyte imaging; read-out: IC50 Hap1
Experimental: as §1

[6] = test system: Sindbis Virus; assay: microbe, parasite or virus in culture; type: cell-based; settings: Vero
[7] = test system: Punta Toro Virus; assay: microbe, parasite or virus in culture; type: cell-based; settings: Vero cells
[8] = test system: Staphylococcus aureus ATCC 6538; assay: Minimum biofilm eradication assay; type: cell-based
Experimental: (§2) MBECs of fumardiamides 4a–f and succindiamides 5a–f were determined as follows. Each well (96-well plate) was filled with 100 µl of bacterial (10^7 CFU/mL) or yeast (5 × 10^6 CFU/mL) suspension. When the inhibition of yeast biofilm formation was tested, the wells were pre-treated with fetal bovine serum (FBS) (250 µl per well). Negative controls contained broth only. Positive controls were performed using standard antimicrobial drugs gentamycin (Gen) and Amph, respectively. […] Following incubation period, each well was aspirated, washed three times and vigorously shaken to remove all non-adherent bacteria/yeast. The remaining attached cells were fixed with methanol (15 min) and the plates were left to dry overnight. Formed biofilm was stained with crystal violet (1%, 5 min). Excess stain was rinsed by placing the plate under running tap water and the plates were left to dry. Adherent cells were solubilized using ethanol. The absorbance was read at 570 nm. The MBEC value represents the lowest dilution of a compound at which bacteria fail to grow.

[9] = test system: Serratia marcescens ATCC 10905; assay: Minimum biofilm eradication assay; type: cell-based
Experimental: as §2

[10] = test system: Bacillus cereus ATCC 11778; assay: Minimum biofilm eradication assay; type: cell-based
Experimental: as §2

[11] = test system: Proteus mirabilis MFBF 10430; assay: Minimum biofilm eradication assay; type: cell-based
Experimental: as §2

[12] = test system: Enterococcus faecalis ATCC 29212; assay: Minimum biofilm eradication assay; type: cell-based
Experimental: as §2

[13] = test system: Bacillus subtilis ATCC 6633; assay: Minimum biofilm eradication assay; type: cell-based
Experimental: as §2

[14] = test system: Escherichia coli ATCC 10536; assay: Minimum biofilm eradication assay; type: cell-based
Experimental: as §2

[15] = test system: Pseudomonas aeruginosa ATCC 27853; assay: Minimum biofilm eradication assay; type: cell-based
Experimental: as §2

[16] = test system: Salmonella enteritidis MFBF 11945; assay: Minimum biofilm eradication assay; type: cell-based
Experimental: as §2

[17] = test system: Acinetobacter baumannii MFBF 10913; assay: Minimum biofilm eradication assay; type: cell-based
Experimental: as §2

[18] = test system: Para-Influenza-3 Virus; assay: organism not typed; type: cell-based; settings: Vero cells
[19] = test system: Streptococcus pneumoniae MFBF 10373; assay: Antimicrobial susceptibility assay in vitro (MIC determination); type: cell-based; settings: MFBF10373, serial microdilution, 18 h, 35 °C
Experimental: (§3) Stock solutions of the tested compounds were prepared in DMSO (10 mg/mL). […] The absorbance was recorded at 540 nm. As a positive quality control (susceptibility of strains) tetracycline hydrochloride (TC) (Sigma-Aldrich) was added into wells.

[20] = test system: Bacillus cereus ATCC 11778; assay: as above; type: cell-based; settings: ATCC11778, serial microdilution, 18 h, 35 °C
Experimental: as §3

[21] = test system: Bacillus subtilis ATCC 6633; assay: as above; type: cell-based; settings: ATCC6633, serial microdilution, 18 h, 35 °C
Experimental: as §3

[22] = test system: Acinetobacter baumannii MFBF 10913; assay: as above; type: cell-based; settings: MFBF10913, serial microdilution, 18 h, 35 °C
Experimental: as §3

[23] = MTS, read-out: EC50 Reovirus-1, MTS
[24] = read-out: EC50 Sindbis Virus, MTS
[25] = MTS, read-out: EC50 Punta Toro Virus, MTS
[26] = MTS, read-out: EC50 Para-Influenza-3 Virus, MTS

COc1cc(NC(C)CCCNC(=O)/C=C/C(=O)Nc2ccc(Cl)cc2)c2ncccc2c1 (stereo not shown) [Compound 4d, (2E)-N-(4-Chlorophenyl)-N′-{4-[(6-methoxyquinolin-8-yl)amino]pentyl}but-2-enediamide]
MIC [1]: 6.1 µg/mL (≈ 13.1 µM) | MIC [2]: 12.5 µg/mL (≈ 26.8 µM) | EC50 [3, 23]: > 50 µM | IC50 [4]: > 100 µM | IC50 [5]: > 100 µM | EC50 [6, 24]: > 50 µM | EC50 [7, 25]: > 50 µM | MBEC [8]: 25 µg/mL | MBEC [9]: >100 µg/mL | MBEC [10]: >100 µg/mL | MBEC [11]: >100 µg/mL | MBEC [12]: 50 µg/mL | MBEC [13]: >100 µg/mL | MBEC [14]: 50 µg/mL | MBEC [15]: >100 µg/mL | MBEC [16]: >100 µg/mL | MBEC [17]: 100 µg/mL | EC50 [18, 26]: > 50 µM | melting point: 223 to 226 °C | MIC [19]: 12.5 µg/mL (≈ 26.8 µM) | MIC [20]: > 100 µg/mL | MIC [21]: > 100 µg/mL | MIC [22]: 12.5 µg/mL (≈ 26.8 µM)

COc1cc(NC(C)CCCNC(=O)/C=C/C(=O)Nc2cccc(C(F)(F)F)c2)c2ncccc2c1 (stereo not shown) [Compound 4e, (2E)-N′-{4-[(6-Methoxyquinolin-8-yl)amino]pentyl}-N-[3-(trifluoromethyl)phenyl]but-2-enediamide]
MIC [1]: 50 µg/mL (≈ 99.9 µM) | MIC [2]: > 100 µg/mL | EC50 [3, 23]: 3.1 µM | EC50 ([3]; visual CPE score, read-out: EC50 Reovirus-1, Visual CPE Score): > 50 µM | IC50 [4]: > 100 µM | IC50 [5]: > 100 µM | EC50 [6, 24]: 5.3 µM | EC50 ([6]; read-out: EC50 Sindbis Virus, Visual CPE Score): 4.2 µM | EC50 [7, 25]: 5.4 µM | EC50 ([7]; visual CPE score, read-out: EC50 Punta Toro Virus, Visual CPE Score): > 50 µM | MBEC [8]: 50 µg/mL | MBEC [9]: >100 µg/mL | MBEC [10]: >100 µg/mL | MBEC [11]: >100 µg/mL | MBEC [12]: 50 µg/mL | MBEC [13]: >100 µg/mL | MBEC [14]: 50 µg/mL | MBEC [15]: 50 µg/mL | MBEC [16]: >100 µg/mL | MBEC [17]: 100 µg/mL | EC50 [18, 26]: > 50 µM | EC50 ([18]; visual CPE score, read-out: EC50 Para-Influenza-3 Virus, Visual CPE Score): > 50 µM | melting point: 149 to 150 °C | MIC [19]: 50 µg/mL (≈ 99.9 µM) | MIC [20]: > 100 µg/mL | MIC [21]: > 100 µg/mL | MIC [22]: 25 µg/mL (≈ 49.9 µM)

COc1cc(NC(C)CCCNC(=O)/C=C/C(=O)Nc2ccc(C(F)(F)F)cc2)c2ncccc2c1 (stereo not shown) [Compound 4f, (2E)-N′-{4-[(6-Methoxyquinolin-8-yl)amino]pentyl}-N-[4-(trifluoromethyl)phenyl]but-2-enediamide]
MIC [1]: 50 µg/mL (≈ 99.9 µM) | MIC [2]: > 100 µg/mL | EC50 [3, 23]: > 50 µM | IC50 [4]: > 100 µM | IC50 [5]: > 100 µM | EC50 [6, 24]: > 50 µM | EC50 [7, 25]: > 50 µM | MBEC [8]: 25 µg/mL | MBEC [9]: >100 µg/mL | MBEC [10]: >100 µg/mL | MBEC [11]: >100 µg/mL | MBEC [12]: 50 µg/mL | MBEC [13]: >100 µg/mL | MBEC [14]: 50 µg/mL | MBEC [15]: 25 µg/mL | MBEC [16]: >100 µg/mL | MBEC [17]: 100 µg/mL | EC50 [18, 26]: > 50 µM | melting point: 189 to 191 °C | MIC [19]: 50 µg/mL (≈ 99.9 µM) | MIC [20]: > 100 µg/mL | MIC [21]: > 100 µg/mL | MIC [22]: 25 µg/mL (≈ 49.9 µM)
